This test addresses T1, KCNQ2/3 channels (Homo sapiens, UniProt O43525+O43526).
T1 construct: expressed in transfected cells
The test can be described thus: Fluorescence assay using a voltage sensitive dye (fluorimetry). The class given is cell-based. Particulars: CHO-K1 cells expressing KCNQ2/3; for Emax: CHO-K1, plateau effect relative to saturated retigabine (50 μM) = 100%, negative values = antagonistic, read-out: Fluorimetry % efficacy (retigabine = 100%); for EC50: IC50 where % efficacy is negative, read-out: Fluorimetry EC50/IC50.

T1 sequence (O43526 whole entry): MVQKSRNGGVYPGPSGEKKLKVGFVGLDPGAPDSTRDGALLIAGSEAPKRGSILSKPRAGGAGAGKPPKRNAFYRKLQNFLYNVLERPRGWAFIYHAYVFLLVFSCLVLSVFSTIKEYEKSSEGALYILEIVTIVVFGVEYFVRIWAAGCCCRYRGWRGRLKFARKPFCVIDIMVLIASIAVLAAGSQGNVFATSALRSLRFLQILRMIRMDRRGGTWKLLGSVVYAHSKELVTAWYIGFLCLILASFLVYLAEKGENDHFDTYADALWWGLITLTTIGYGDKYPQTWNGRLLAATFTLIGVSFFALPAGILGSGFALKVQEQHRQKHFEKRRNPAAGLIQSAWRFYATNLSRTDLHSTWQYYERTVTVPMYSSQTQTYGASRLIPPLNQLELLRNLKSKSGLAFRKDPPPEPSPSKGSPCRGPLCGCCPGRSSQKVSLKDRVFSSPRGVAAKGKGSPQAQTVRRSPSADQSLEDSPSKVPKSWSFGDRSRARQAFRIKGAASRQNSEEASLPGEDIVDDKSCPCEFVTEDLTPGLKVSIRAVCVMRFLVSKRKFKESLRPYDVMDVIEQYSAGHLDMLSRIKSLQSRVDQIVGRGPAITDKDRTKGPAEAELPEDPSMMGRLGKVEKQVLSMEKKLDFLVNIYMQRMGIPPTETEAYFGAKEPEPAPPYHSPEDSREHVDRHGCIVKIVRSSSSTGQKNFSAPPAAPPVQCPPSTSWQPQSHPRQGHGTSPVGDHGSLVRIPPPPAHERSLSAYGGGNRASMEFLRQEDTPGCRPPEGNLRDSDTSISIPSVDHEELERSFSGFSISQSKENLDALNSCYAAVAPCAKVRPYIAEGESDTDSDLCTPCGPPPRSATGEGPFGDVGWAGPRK
T1 sequence (O43525 whole entry): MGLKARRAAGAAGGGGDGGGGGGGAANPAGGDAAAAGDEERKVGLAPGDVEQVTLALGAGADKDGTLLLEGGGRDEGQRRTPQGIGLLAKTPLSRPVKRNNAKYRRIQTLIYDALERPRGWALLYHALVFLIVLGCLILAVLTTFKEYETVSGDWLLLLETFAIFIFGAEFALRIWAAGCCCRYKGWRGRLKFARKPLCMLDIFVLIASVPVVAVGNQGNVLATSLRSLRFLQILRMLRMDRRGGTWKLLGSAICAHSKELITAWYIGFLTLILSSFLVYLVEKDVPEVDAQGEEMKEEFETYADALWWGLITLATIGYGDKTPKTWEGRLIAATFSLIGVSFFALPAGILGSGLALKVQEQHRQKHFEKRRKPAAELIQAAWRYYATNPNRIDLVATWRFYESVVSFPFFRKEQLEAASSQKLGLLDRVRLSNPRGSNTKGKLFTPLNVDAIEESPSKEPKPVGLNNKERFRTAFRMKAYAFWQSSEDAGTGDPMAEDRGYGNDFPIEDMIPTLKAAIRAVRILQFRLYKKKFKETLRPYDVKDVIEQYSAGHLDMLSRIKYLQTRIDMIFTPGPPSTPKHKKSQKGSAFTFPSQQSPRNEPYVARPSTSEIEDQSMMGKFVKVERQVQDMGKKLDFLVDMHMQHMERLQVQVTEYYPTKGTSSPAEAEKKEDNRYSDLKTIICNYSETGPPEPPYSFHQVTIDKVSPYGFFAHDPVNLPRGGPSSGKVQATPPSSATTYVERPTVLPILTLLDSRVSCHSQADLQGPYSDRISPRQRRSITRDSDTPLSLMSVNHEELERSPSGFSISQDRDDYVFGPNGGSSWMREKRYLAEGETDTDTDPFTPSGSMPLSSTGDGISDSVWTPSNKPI

In the case of `Cc1cc(N2CCOC[C@H]2C)nc(C2CC2)c1C(=O)NCc1ccc(Cl)cc1` [Example 282, N-[(4-Chlorophenyl)-methyl]-2-cyclopropyl-4-methyl-6-[(3R)-3-methyl-morpholin-4-yl]-pyridine-3-carboxylic acid amide], the Emax amounted to 182% and the EC50 stood at 0.04 µM.
With `Cc1cc(N2CCOCC2)nc(OCCN(C)C)c1C(=O)NCc1ccc(Cl)cc1` [Example 283, N-[(4-Chlorophenyl)-methyl]-2-(2-dimethylaminoethyloxy)-4-methyl-6-morpholin-4-yl-pyridine-3-carboxylic acid amide], the Emax is 22%.
`CCSc1nc(N2CCOCC2)cc(C)c1C(=O)NCc1ccc(F)c(OC)c1` [Example 284, 2-Ethylsulfanyl-N-[(4-fluoro-3-methoxy-phenyl)-methyl]-4-methyl-6-morpholin-4-yl-pyridine-3-carboxylic acid amide]: the Emax was determined as 94% and the EC50 was found to be 0.648 µM.
With `COC[C@@H]1CN(c2cc(C)c(C(=O)NCc3ccc(Cl)cc3)c(C(C)C)n2)CCO1` [Example 285, N-[(4-Chlorophenyl)-methyl]-2-isopropyl-6-[(2S)-2-(methoxymethyl)-morpholin-4-yl]-4-methyl-pyridine-3-carboxylic acid amide], the Emax was 126% and the EC50 was found to be 0.157 µM.
On to `CCSc1nc(N2CCOCC2)cc(C)c1C(=O)NCCC(O)C(C)C` (stereo not drawn) [Example 286, 2-Ethylsulfanyl-N-(3-hydroxy-4-methyl-pentyl)-4-methyl-6-morpholin-4-yl-pyridine-3-carboxylic acid amide], for which the Emax was determined as 198% and the EC50 amounted to 1.75 µM.
`CCSc1nc(N2CCOCC2)cc(C)c1C(=O)NCc1ccc(OC)c(F)c1` [Example 287, 2-Ethylsulfanyl-N-[(3-fluoro-4-methoxy-phenyl)-methyl]-4-methyl-6-morpholin-4-yl-pyridine-3-carboxylic acid amide]: the Emax is 153% and the EC50 is 0.971 µM.
On the same counts, the results for `CCSc1nc(N2CCOCC2)cc(C)c1C(=O)NCc1ccc(OC(F)F)cc1` [Example 288, N-[[4-(Difluoro-methoxy)-phenyl]-methyl]-2-ethylsulfanyl-4-methyl-6-morpholin-4-yl-pyridine-3-carboxylic acid amide] are 138% and 0.435 µM.
With `CCSc1nc(N2CCOCC2)cc(C)c1C(=O)NCc1ccc2c(c1)COC2` [Example 289, N-(1,3-Dihydro-isobenzofuran-5-yl-methyl)-2-ethylsulfanyl-4-methyl-6-morpholin-4-yl-pyridine-3-carboxylic acid amide], the Emax turned out to be 129% and the EC50 is 2.82 µM.
On to `COC[C@@H]1CN(c2cc(C)c(C(=O)NCc3ccc(Cl)cc3)c(C3CC3)n2)CCO1` [Example 290, N-[(4-Chlorophenyl)-methyl]-2-cyclopropyl-6-[(2S)-2-(methoxymethyl)-morpholin-4-yl]-4-methyl-pyridine-3-carboxylic acid amide], for which the Emax came to 136% and the EC50 came out at 0.314 µM.
As to `CCSc1nc(N2CCO[C@H](CO)C2)cc(C)c1C(=O)NCc1cccc(F)c1` [Example 291, 2-Ethylsulfanyl-N-[(3-fluorophenyl)-methyl]-6-[(2S)-2-(hydroxymethyl)-morpholin-4-yl]-4-methyl-pyridine-3-carboxylic acid amide], the Emax worked out at 53% and the EC50 is 7.95 µM.
As to `CCSc1nc(N2CCO[C@@H](CO)C2)cc(C)c1C(=O)NCc1cccc(F)c1` [Example 292, 2-Ethylsulfanyl-N-[(3-fluorophenyl)-methyl]-6-[(2R)-2-(hydroxymethyl)-morpholin-4-yl]-4-methyl-pyridine-3-carboxylic acid amide], the Emax came to 32%.
Turning to `CCSc1nc(N(C)CC2CCCO2)cc(C)c1C(=O)NCc1cccc(F)c1` (stereo not drawn) [Example 294, 2-Ethylsulfanyl-N-[(3-fluorophenyl)-methyl]-4-methyl-6-[methyl-(tetrahydro-furan-2-yl-methyl)-amino]-pyridine-3-carboxylic acid amide], the Emax stood at 129% and the EC50 turned out to be 1.03 µM.
Consider `CCSc1nc(N2CCOC[C@H]2C)cc(C)c1C(=O)NCc1cccc(F)c1` [Example 295, 2-Ethylsulfanyl-N-[(3-fluorophenyl)-methyl]-4-methyl-6-[(3R)-3-methyl-morpholin-4-yl]-pyridine-3-carboxylic acid amide], for which the Emax came out at 188% and the EC50 amounted to 0.05 µM.
With `CCSc1nc(N2CCOC[C@@H]2C)cc(C)c1C(=O)NCc1cccc(F)c1` [Example 296, 2-Ethylsulfanyl-N-[(3-fluorophenyl)-methyl]-4-methyl-6-[(3S)-3-methyl-morpholin-4-yl]-pyridine-3-carboxylic acid amide], the Emax stood at 222% and the EC50 came out at 0.189 µM.
On the same counts, the results for `CCSc1nc(N(C)Cc2ccc(C(F)(F)F)cc2)cc(C)c1C(=O)NCc1cccc(F)c1` [Example 297, 2-Ethylsulfanyl-N-[(3-fluorophenyl)-methyl]-4-methyl-6-[methyl-[[4-(trifluoromethyl)-phenyl]-methyl]-amino]-pyridine-3-carboxylic acid amide] are 125% and 0.177 µM.
Consider `CCSc1nc(N2CCS(=O)(=O)CC2)cc(C)c1C(=O)NCc1cccc(F)c1` [Example 298, 6-(1,1-Dioxo-[1,4]thiazinan-4-yl)-2-ethylsulfanyl-N-[(3-fluorophenyl)-methyl]-4-methyl-pyridine-3-carboxylic acid amide], for which the Emax was determined as 127% and the EC50 is 4.59 µM.
Take `CCSc1nc(N2CCC2)cc(C)c1C(=O)NCc1cccc(F)c1` [Example 299, 6-(Azetidin-1-yl)-2-ethylsulfanyl-N-[(3-fluorophenyl)-methyl]-4-methyl-pyridine-3-carboxylic acid amide]: the Emax was 104% and the EC50 was found to be 0.92 µM.
As to `CCSc1nc(N(C)C2CCOC2)cc(C)c1C(=O)NCc1cccc(F)c1` (stereo not drawn) [Example 301, 2-Ethylsulfanyl-N-[(3-fluorophenyl)-methyl]-4-methyl-6-(methyl-tetrahydro-furan-3-yl-amino)-pyridine-3-carboxylic acid amide], the Emax was determined as 132% and the EC50 was 0.767 µM.
In the case of `CCSc1nc(N(C)c2ccccc2)cc(C)c1C(=O)NCc1cccc(F)c1` [Example 302, 2-Ethylsulfanyl-N-[(3-fluorophenyl)-methyl]-4-methyl-6-(N-methyl-anilino)-pyridine-3-carboxylic acid amide], the Emax was determined as 93% and the EC50 was 0.278 µM.
`CCSc1nc(N2Cc3ccccc3C2)cc(C)c1C(=O)NCc1cccc(F)c1` [Example 303, 6-(2,3-Dihydro-1H-isoindol-2-yl)-2-ethylsulfanyl-N-[(3-fluorophenyl)-methyl]-4-methyl-pyridine-3-carboxylic acid amide]: the Emax turned out to be 54% and the EC50 came to 1.15 µM.
As to `CCSc1nc(N2CCCc3ccccc32)cc(C)c1C(=O)NCc1cccc(F)c1` [Example 304, 2-Ethylsulfanyl-N-[(3-fluorophenyl)-methyl]-4-methyl-6-(1,2,3,4-tetrahydro-quinolin-1-yl)-pyridine-3-carboxylic acid amide], the Emax turned out to be 81% and the EC50 turned out to be 0.348 µM.
Consider `CCSc1nc(N2CCc3ccccc32)cc(C)c1C(=O)NCc1cccc(F)c1` [Example 305, 6-(2,3-Dihydro-1H-indol-1-yl)-2-ethylsulfanyl-N-[(3-fluorophenyl)-methyl]-4-methyl-pyridine-3-carboxylic acid amide], for which the Emax amounted to 57%.
Still for that read-out and setting: for `CCSc1nc(N2CCOCC2)cc(C)c1C(=O)NCC(C)CC(C)(C)C` (stereo not drawn) [Example 306, 2-Ethylsulfanyl-4-methyl-6-morpholin-4-yl-N-(2,4,4-trimethyl-pentyl)-pyridine-3-carboxylic acid amide] the value was 33%.
Consider `CCSc1nc(N(C)C2CCCC(OC)C2)cc(C)c1C(=O)NCc1cccc(F)c1` (stereo not drawn) [Example 307, 2-Ethylsulfanyl-N-[(3-fluorophenyl)-methyl]-6-[(3-methoxy-cyclohexyl)-methyl-amino]-4-methyl-pyridine-3-carboxylic acid amide], for which the Emax was 104% and the EC50 came out at 0.178 µM.
Regarding `CCSc1nc(N2CCOCC2)cc(C)c1C(=O)NCCCC(C)(F)F` [Example 308, N-(4,4-Difluoro-pentyl)-2-ethylsulfanyl-4-methyl-6-morpholin-4-yl-pyridine-3-carboxylic acid amide], the Emax is 249% and the EC50 was 0.397 µM.
For `Cc1cc(N2CCOCC2)nc(C(C)C)c1C(=O)NCc1ccc(F)cc1` [Example 309, N-[(4-Fluorophenyl)-methyl]-2-isopropyl-4-methyl-6-morpholin-4-yl-pyridine-3-carboxylic acid amide], the Emax turned out to be 168% and the EC50 came out at 0.071 µM.
As to `Cc1cc(N2CCOCC2)nc(C(C)C)c1C(=O)NCc1ccc(F)c(F)c1` [Example 310, N-[(3,4-Difluoro-phenyl)-methyl]-2-isopropyl-4-methyl-6-morpholin-4-yl-pyridine-3-carboxylic acid amide], the Emax worked out at 174% and the EC50 was 0.043 µM.
On the same counts, the results for `Cc1cc(N2CCOCC2)nc(C(C)C)c1C(=O)NCc1ccc(C(F)(F)F)cc1` [Example 311, 2-Isopropyl-4-methyl-6-morpholin-4-yl-N-[[4-(trifluoromethyl)-phenyl]-methyl]pyridine-3-carboxylic acid amide] are 146% and 0.045 µM.
With `CCSc1nc(N2CCOCC2=O)cc(C)c1C(=O)NCc1cccc(F)c1` [Example 312, 2-Ethylsulfanyl-N-[(3-fluorophenyl)-methyl]-4-methyl-6-(3-oxo-morpholin-4-yl)-pyridine-3-carboxylic acid amide], the Emax stood at 135% and the EC50 amounted to 6.7 µM.

The values above are taken from patent US9168259B2 (GRÜNENTHAL GMBH, priority 2010, dated 2015).
